According to patent US6495525B1, “VLA-4 inhibitor: oMePUPA-V” (Biogen, Inc., priority 1998, dated 2002):
In brackets after ≈: the same amount, converted by molar mass. Entries after “also recorded” stand apart in the source; their conditions may differ.

What was measured:
[1] = test system: panel of radioligand, enzyme, and functional assays; experiment: Panlabs ProfilingScreen, DiscoveryScreen, Immunoscreen and Cerep membrane receptor panel
Experimental: oMePUPA-V was tested in the Panlabs ProfilingScreen, DiscoveryScreen, and Immunoscreen panel of radioligand, enzyme, and functional assays and in the Cerep membrane receptor panel.

human ACE = target: T1, human ACE (Homo sapiens, UniProt P12821); experiment: ACE protease activity (Cerep, HUVEC, 3H-HGG conversion); type: biochemical
T1 construct: The source of ACE proteases was human endothelial cells (HUVEC); host or cells: HUVEC (human endothelial cells)
Excerpt: The source of ACE proteases was human endothelial cells (HUVEC). ^3H-HGG, added to HUVEC, was converted to ^3H-hippuric acid and glycylglycine by ACE.

[2] = test system: Ascaris suum-sensitive sheep; experiment: Single dose irritancy, airways resistance after aerosol in sheep; type: in vivo; settings: single aerosol doses 0.01-3 mg
Experimental: FIG. 2: Sheep, naturally sensitive to Ascaris suum, were challenged with an aerosol administration of oMePUPA-V at the doses indicated or an aerosol of Ascaris suum. Changes in airways resistance were measured following aerosol challenge and peak specific lung resistance (cm H2O/sec) after challenge was compared to baseline values. *=p<0.05 compared to PBS control, one-way analysis of variance, followed by Dunnett's test for multiple comparison to a control group. Indicates a statistically significant increase in peak specific lung resistance compared to PBS control group.

VLA-5 = target: T2, VLA-5 (Homo sapiens, UniProt P05556+P08648); experiment: Adhesion of K562 cells to Fn-120 (VLA-5 / α5β1-FN adhesion); type: cell-based
T2 construct: endogenous in cells; host or cells: K562 cells
T2 sequence (P08648 42-894 limits assumed): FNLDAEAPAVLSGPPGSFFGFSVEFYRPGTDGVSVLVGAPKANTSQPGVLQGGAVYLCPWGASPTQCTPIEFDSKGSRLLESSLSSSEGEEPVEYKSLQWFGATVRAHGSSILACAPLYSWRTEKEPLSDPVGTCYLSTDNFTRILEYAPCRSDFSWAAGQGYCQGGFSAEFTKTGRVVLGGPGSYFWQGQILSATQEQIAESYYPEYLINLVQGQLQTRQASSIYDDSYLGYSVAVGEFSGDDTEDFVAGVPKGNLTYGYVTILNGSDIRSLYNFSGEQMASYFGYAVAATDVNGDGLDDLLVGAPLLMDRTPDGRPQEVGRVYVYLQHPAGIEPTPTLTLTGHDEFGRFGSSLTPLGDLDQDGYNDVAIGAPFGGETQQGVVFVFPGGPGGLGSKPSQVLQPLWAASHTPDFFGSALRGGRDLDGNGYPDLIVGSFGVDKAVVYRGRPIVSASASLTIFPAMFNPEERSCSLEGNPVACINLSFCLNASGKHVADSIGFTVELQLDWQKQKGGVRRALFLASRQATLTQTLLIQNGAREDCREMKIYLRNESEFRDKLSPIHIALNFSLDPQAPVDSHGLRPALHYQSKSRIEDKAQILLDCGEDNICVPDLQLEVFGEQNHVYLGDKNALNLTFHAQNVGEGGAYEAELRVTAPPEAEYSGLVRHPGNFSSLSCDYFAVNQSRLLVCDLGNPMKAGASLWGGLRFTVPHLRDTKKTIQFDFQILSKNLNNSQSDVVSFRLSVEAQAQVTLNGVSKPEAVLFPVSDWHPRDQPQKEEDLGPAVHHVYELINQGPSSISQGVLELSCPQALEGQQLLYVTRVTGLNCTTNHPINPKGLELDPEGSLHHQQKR
T2 sequence (P08648 895-1049 partner limits assumed): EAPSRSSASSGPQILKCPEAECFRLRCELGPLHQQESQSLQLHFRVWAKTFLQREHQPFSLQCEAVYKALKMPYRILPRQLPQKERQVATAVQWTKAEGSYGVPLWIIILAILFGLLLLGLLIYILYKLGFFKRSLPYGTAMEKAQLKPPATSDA
T2 sequence (P05556 21-798): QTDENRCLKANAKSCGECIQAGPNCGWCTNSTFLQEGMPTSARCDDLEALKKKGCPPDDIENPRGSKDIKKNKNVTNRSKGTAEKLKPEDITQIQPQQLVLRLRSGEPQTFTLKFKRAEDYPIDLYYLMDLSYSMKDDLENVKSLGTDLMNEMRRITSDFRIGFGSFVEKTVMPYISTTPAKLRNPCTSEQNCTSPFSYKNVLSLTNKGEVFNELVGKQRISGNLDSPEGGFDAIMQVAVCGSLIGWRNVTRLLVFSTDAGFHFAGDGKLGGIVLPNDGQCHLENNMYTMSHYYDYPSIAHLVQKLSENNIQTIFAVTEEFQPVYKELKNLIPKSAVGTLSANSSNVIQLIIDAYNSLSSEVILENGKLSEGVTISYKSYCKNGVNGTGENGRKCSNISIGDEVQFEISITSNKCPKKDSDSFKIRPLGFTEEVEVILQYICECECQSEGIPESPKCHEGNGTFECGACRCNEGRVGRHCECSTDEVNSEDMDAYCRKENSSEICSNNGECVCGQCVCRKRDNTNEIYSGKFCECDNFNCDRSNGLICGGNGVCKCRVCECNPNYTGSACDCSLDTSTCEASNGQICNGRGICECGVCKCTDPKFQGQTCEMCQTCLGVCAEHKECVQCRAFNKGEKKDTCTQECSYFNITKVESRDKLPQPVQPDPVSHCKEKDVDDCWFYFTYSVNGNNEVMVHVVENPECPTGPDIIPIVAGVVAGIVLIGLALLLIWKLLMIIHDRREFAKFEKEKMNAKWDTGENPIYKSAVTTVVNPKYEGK
Experimental: Untreated 96 well polystyrene flat bottom plates were coated with 5 μg/ml Fn-120 overnight at 4° C. The plates were washed twice with phosphate buffered saline (PBS) and blocked with 1% Bovine Serum Albumin (BSA) for 1 hour at room temperature. The plates were washed twice with TBS buffer containing 1 mM MnCl2 (assay buffer). K562 cells were labeled with 2 μM of the fluorescent dye, BCECF-AM (see section 4.1.3), and bound to the plate for 30 minutes at room temperature. The plates were inverted and washed three times and adherent cells were quantitated in a Cytofluor fluorescent platereader using an excitation wavelength of 485 nm and an emission wavelength of 530

[3] = Formulated / solution stability (HPLC); type: physicochemical
gpIIbIIIa = target: T3, gpIIbIIIa (Homo sapiens, UniProt P05106+P08514); experiment: Platelet aggregation induced by ADP in platelet rich plasma; type: cell-based
T3 construct: from tissue; host or cells: platelet rich plasma
T3 sequence (P08514 32-887 limits assumed): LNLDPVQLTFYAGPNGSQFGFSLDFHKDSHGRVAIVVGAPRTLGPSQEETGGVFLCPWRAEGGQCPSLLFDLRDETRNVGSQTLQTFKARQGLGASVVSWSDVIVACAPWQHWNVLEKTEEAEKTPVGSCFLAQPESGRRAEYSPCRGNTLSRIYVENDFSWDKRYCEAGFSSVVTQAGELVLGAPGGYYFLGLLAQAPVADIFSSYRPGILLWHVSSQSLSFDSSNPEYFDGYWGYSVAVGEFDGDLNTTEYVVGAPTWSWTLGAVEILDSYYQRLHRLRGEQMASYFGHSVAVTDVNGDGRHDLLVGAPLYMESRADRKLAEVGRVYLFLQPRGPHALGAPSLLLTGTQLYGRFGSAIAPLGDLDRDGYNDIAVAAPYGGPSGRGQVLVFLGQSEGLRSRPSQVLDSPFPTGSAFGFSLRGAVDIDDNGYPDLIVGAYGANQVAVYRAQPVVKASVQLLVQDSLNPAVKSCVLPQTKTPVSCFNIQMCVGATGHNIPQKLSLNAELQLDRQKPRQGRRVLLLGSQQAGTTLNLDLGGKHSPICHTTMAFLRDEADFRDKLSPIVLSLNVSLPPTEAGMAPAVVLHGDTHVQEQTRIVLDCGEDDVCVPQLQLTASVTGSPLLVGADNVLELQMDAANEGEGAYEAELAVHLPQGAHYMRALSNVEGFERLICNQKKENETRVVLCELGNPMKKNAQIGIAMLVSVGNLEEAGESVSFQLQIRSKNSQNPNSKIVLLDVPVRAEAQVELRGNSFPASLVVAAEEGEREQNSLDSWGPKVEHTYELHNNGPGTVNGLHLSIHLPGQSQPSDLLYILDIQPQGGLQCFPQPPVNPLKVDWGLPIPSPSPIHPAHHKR
T3 sequence (P08514 891-1039 partner limits assumed): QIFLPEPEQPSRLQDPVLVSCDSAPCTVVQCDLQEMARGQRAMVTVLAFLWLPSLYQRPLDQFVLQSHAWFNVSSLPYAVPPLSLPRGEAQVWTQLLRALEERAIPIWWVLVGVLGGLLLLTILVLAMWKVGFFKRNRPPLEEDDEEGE
T3 sequence (P05106 27-788): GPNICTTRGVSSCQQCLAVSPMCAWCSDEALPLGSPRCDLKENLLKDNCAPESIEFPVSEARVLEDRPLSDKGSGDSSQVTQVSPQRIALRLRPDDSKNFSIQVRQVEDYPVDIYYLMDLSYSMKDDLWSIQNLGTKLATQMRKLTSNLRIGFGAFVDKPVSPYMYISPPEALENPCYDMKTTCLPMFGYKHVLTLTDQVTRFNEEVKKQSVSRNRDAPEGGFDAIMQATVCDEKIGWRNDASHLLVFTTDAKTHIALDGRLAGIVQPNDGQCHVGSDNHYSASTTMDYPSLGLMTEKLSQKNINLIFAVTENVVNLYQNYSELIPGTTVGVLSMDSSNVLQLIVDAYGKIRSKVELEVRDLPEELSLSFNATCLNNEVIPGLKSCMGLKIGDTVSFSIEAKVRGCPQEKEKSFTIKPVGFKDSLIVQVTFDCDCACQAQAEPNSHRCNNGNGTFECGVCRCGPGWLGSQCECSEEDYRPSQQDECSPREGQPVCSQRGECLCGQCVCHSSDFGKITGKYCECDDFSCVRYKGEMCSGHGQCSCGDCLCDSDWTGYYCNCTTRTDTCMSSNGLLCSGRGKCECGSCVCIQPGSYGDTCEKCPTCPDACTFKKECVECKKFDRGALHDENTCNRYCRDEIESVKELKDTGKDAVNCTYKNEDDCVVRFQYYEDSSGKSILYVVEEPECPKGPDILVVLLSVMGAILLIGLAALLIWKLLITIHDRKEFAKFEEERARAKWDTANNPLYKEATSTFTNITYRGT
Experimental: Activity against gpIIbIIIa was assessed by means of standard platelet aggregometry using platelet rich plasma. ADP was used to initiate aggregation in the presence of plasma where Ca^+2 and Mg^+2 are the major divalent cations. GRGDSP @ 100 ug/mL was used as a positive control.

Solubility = type: physicochemical
α4β1 = target: T4, α4β1 (Homo sapiens, UniProt P05556+P13612); experiment: LIBS induction on Jurkat cells with antibody 9EG7 (FACS); type: cell-based; settings: 2 mM Mg+2 buffer, read-out: EC50 of LIBS epitope induction
T4 construct: endogenous in cells; host or cells: Jurkat (human T cell line)
T4 sequence (P13612 34-1032): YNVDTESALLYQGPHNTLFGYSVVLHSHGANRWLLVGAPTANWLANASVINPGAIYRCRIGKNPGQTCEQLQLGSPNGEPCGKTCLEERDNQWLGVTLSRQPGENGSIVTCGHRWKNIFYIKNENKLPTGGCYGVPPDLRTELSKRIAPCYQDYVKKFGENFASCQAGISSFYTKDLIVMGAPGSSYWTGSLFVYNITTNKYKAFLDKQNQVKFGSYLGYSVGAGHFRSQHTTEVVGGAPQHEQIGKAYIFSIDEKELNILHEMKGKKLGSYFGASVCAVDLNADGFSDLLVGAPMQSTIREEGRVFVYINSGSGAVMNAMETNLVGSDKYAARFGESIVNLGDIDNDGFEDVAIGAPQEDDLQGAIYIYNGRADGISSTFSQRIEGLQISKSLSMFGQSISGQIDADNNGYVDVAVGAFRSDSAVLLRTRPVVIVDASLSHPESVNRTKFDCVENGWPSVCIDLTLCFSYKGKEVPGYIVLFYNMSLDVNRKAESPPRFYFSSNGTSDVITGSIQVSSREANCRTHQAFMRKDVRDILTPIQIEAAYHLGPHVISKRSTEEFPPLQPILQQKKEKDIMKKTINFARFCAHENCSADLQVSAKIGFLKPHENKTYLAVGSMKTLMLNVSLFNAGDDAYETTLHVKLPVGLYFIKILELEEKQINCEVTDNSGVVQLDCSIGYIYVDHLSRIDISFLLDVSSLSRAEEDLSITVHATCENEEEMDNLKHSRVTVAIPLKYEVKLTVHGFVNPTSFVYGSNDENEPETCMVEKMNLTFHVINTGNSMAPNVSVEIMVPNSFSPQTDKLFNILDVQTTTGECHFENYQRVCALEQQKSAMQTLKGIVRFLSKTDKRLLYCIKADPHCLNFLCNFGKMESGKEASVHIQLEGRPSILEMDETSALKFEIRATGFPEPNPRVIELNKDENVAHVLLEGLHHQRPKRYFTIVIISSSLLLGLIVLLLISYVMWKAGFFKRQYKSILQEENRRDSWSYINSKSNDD
T4 sequence (P05556 21-798): as the sequence (P05556 21-798) above
Experimental: Jurkat cells (2×10^5/well) were preincubated at 37° C. for 20 minutes with TRIS-buffered saline containing 2 mM MgCl2 (Mg^+2-TBS) alone or with serial dilutions of test compounds. The samples were transferred to an ice bath and supplemented with LIBS antibody, 9EG7, at a final concentration of 10 μg/ml. The cells were washed twice with Mg^+2-TBS and resuspended in a 1:200 dilution of a FITC conjugated-goat anti-rat IgG in Mg^+2-TBS and incubated for 30 min at 4° C. The cells were washed twice and resuspended in Mg^+2-TBS. Mean fluorescence intensity (MFI) was determined by FACS analysis (Becton Dickinson FACScan). Results are expressed as MFI. Data were analyzed by Microsoft Excel v5.0 and Deltagraph v4.0 software.

Crystallinity = type: physicochemical
VLA-4 [4] = target: T5, VLA-4 (Homo sapiens, UniProt P05556+P13612); experiment: Purified VLA-4 Protein/Protein Assay with VCAM-Ig-AP; type: binding; design: endogenous in cells; host or cells: Jurkat (human T cell line)
T5 sequence (P13612 34-1032): as the sequence (P13612 34-1032) above
T5 sequence (P05556 21-798): as the sequence (P05556 21-798) above
Experimental: VLA-4 was purified from a detergent extract of a high expressing subclone of α4-transfected K562 cells by antibody affinity chromatography and immobilized on microtiter wells to establish a protein/protein competitive binding assay. VCAM-Ig-AP was bound to the purified VLA-4-coated plate in the absence or presence of oMePUPA-V (Lot #2) and 1 mM MnCl2. Plates were read at 405 nm and the data were analyzed using SoftMax v. 2.32 software.

VLA-4 [5] = target: T5, VLA-4; experiment: VLA-4-VCAM-Ig binding (Table 1; VLA-4 binding assays); design: endogenous in cells; host or cells: Jurkat (human T cell line); settings: read-out: IC50 against VLA-4-VCAM-Ig binding
Excerpt: A direct binding assay may also be employed to quantitate the inhibitory activity of the compounds of this invention. In this assay, a VCAM-IgG fusion protein containing the first two immunoglobulin domains of VCAM (D1D2) attached above the hinge region of an IgG1 molecule (“VCAM 2D-IgG”), is conjugated to a marker enzyme, such as alkaline phosphatase (“AP”). The synthesis of this VCAM-IgG fusion is described in PCT publication WO 90/13300, the disclosure of which is herein incorporated by reference. The conjugation of that fusion to a marker enzyme is achieved by cross-linking methods well-known in the art.
The VCAM-IgG enzyme conjugate is then placed in the wells of a multi-well filtration plate, such as that contained in the Millipore Multiscreen Assay System (Millipore Corp., Bedford, Ma.). Varying concentrations of the test inhibitory compound are then added to the wells followed by addition of VLA-4-expressing cells. The cells, compound and VCAM-IgG enzyme conjugate are mixed together and allowed to incubate at room temperature.
Following incubation, the wells are vacuum drained, leaving behind the cells and any bound VCAM. Quantitation of bound VCAM is determined by adding an appropriate colorimetric substrate for the enzyme conjugated to VCAM-IgG and determining the amount of reaction product. Decreased reaction product indicates increased binding inhibitory activity. […]

## Cc1ccccc1NC(=O)Nc1ccc(CC(=O)N2CCC[C@H]2C(=O)N[C@H](C)CC(=O)O)cc1 [oMePUPA-V]
[1]
  In vitro pharma screen 85 tests: clean
[1]; at 10 μM
  activity in Panlabs and Cerep panels: No significant activity
Human ACE
  ACE activity: clean
Human ACE; at 10 μM, HUVEC
  inhibition of human ACE protease activity: no inhibition
[2]
  irritant effect, change in airways resistance compared to baseline: lack of change in airways resistance compared to baseline resistance
VLA-5
  measurable activity against VLA-5: > 100 µM
VLA-5; @ 100 μM, Mn+2, 100 µM
  inhibition, K562 (VLA-5) Fn-120 adhesion: no inhibition; also recorded: no inhibition @
VLA-5; read-out: IC50 against α5β1-FN adhesion
  IC50: > 100000 nM
[3]
  Formulated stability (40° C.), time stable: stable >4 wk
gpIIbIIIa
  measurable activity against gpIIbIIIa: > 100 µM
gpIIbIIIa; @ 100 μM, Ca+2/Mg+2
  inhibition, platelets (IIbIIIa) fibrinogen aggregation: no inhibition @
gpIIbIIIa; three doses 1, 10 and 100 μM
  inhibition of ADP-induced platelet aggregation (in words): did not inhibit
Solubility; DMSO
  solubility in DMSO: soluble
Solubility; aqueous medium
  solubility: 120 µg/mL (≈ 257 µM)
α4β1
  EC50: ~20 nM
Crystallinity
  Crystallinity: YES
VLA-4 [4]; 1 mM MnCl2, read-out: IC50, Purified VLA-4 VCAM-Ig binding
  IC50: 0.1 nM
VLA-4 [4]; in the presence of Mn+2
  potency on isolated VLA-4 relative to Jurkat cells in the binding assay: 80 fold
VLA-4 [5]
  IC50: 2.7 nM
